This note sets out measurements from EP0265185A2, “Cephalosporins, processes for their preparation and pharmaceutical compositions containing them” (BEECHAM GROUP PLC, priority 1986, dated 1988).

For orientation: MIC means the lowest concentration that inhibits growth of the organism.

One test concerns Enterobacter cloacae P99. Nature of the test: Minimum inhibitory concentration by serial dilution in agar. Type of test: cell-based. The method, then: (§1) Minimum inhibitory Concentration (MIC) values of compounds of the invention against Enterobacter cloacae P99 and Pseudomonas aeruginosa 10662 were determined by serial dilution in agar. The plates were inoculated with 104 colony forming units and incubated overnight at 37°C. The MIC values recorded in Tables 1 and 2 were the lowest concentration of antibiotic to inhibit growth.

For test [1], the system named is Pseudomonas aeruginosa 10662. The description is as above. In kind it is cell-based. The method, then:
as §1

The mark [2] stands for this setting: Pseudomonas aeruginosa 10662, serial dilution in agar, inoculated with 104 colony forming units, incubated overnight at 37°C, lowest concentration to inhibit growth, read-out: MIC.

Each structure is given as a SMILES string. ≈ marks a conversion by molar mass, not a printed value. Counter-ions that a name gives are not always drawn. Like-named read-outs stand apart in the source and are kept apart here.

On to `CCN1CCN(C(=O)N[C@@H](C(=O)N[C@]2(NC=O)C(=O)N3C(C(=O)[O-])=C(CNC(=O)/C=C/c4ccc(OC(C)=O)c(OC(C)=O)c4)CS[C@@H]32)c2ccccc2)C(=O)C1=O.[Na+]` [Example 6, Sodium (6R,7R)-3-[(E)-3,4-Diacetoxycinnamoyl]aminomethyl-7-[(R)-2-(4-ethyl-2,3-dioxopiperazin-1-ylcarbonylamino)-2-phenylacetamido]-7-formamido-ceph-3-em-4-carboxylate], for which the MIC in the test on Enterobacter cloacae P99 was 0.5 µg/mL; in test [1] (Pseudomonas aeruginosa, 10662), 0.12 µg/mL.
With `CCN1CCN(C(=O)N[C@@H](C(=O)N[C@]2(NC=O)C(=O)N3C(C(=O)O)=C(COC(C)=O)CS[C@@H]32)c2ccccc2)C(=O)C1=O` [Compound B, 7β-[D-2-[(4-ethyl-2,3-dioxopiperazin-1-yl)carbonylamino]-2-phenylacetamido]-7α-formamidocephalosporanic acid, sodium salt, reference compound], the MIC (in the test with Enterobacter cloacae P99; in test [1] (setting [2])) was 16 µg/mL each time.
As for `CCN1CCN(C(=O)N[C@@H](C(=O)N[C@]2(NC=O)C(=O)N3C(C(=O)[O-])=C(COC(=O)c4ccc(O)c(O)c4)CS[C@@H]32)c2ccccc2)C(=O)C1=O.[Na+]` [Example 1, Sodium (6R,7R)-3-(3,4-Dihydroxybenzoyloxy)methyl-7-[(R)-2-(4-ethyl-2,3-dioxopiperazin-1-yl)carbonylamino-2-phenylacetamido]-7-formamidoceph-3-em-4-carboxylate], the MIC is 0.12 µg/mL against Enterobacter cloacae P99 and at most 0.03 µg/mL in test [1] (Pseudomonas aeruginosa, 10662).
On to `CCN1CCN(C(=O)N[C@@H](C(=O)N[C@]2(NC=O)C(=O)N3C(C(=O)[O-])=C(CN=[N+]=[N-])CS[C@@H]32)c2ccccc2)C(=O)C1=O.[Na+]` [Example 3, Sodium (6R,7R)-3-Azidomethyl-7-[(R)-2-(4-ethyl-2,3-dioxopiperazin-1-ylcarbonylamino)-2-phenylacetamido]-7-formamidoceph-3-em-4-carboxylate], for which the MIC came out at 4 µg/mL in the test on Enterobacter cloacae P99 and 4 µg/mL in test [1] (Pseudomonas aeruginosa, 10662).
Consider `CO/N=C(\C(=O)N[C@@H]1C(=O)N2C(C(=O)O)=C(COC(C)=O)CS[C@H]12)c1csc(N)n1` [Compound A, cefotaxime, reference compound], for which the values for the MIC (against Enterobacter cloacae P99; in test [1] (setting [2])) were at least 128 µg/mL and 16 µg/mL (≈ 35.1 µM), respectively.
As to `CCN1CCN(C(=O)N[C@@H](C(=O)N[C@]2(NC=O)C(=O)N3C(C(=O)[O-])=C(CNC(=O)c4ccc(O)c(O)c4)CS[C@@H]32)c2ccccc2)C(=O)C1=O.[Na+]` [Example 7, Sodium (6R,7R)-3-(3,4-Dihydroxybenzoyl)aminomethyl7-[(R)-2-(4-ethyl-2,3-dioxopiperazin-1-ylcarbonylamino) -2-phenylacetamido]-7-formamido-ceph-3-em-4-carboxylate], the MIC is 0.25 µg/mL with Enterobacter cloacae P99 and at most 0.03 µg/mL in test [1] (Pseudomonas aeruginosa, 10662).
As to `CO/N=C(\C(=O)N[C@@H]1C(=O)N2C(C(=O)[O-])=C(COC(=O)c3ccc(O)c(O)c3)CS[C@H]12)c1csc(N)n1.[Na+]` [Example 10, Sodium (6R,7R)-7-[2-(2-amino-4-thiazolyl)-2-((Z)-methoxyimino)acetamido]-3-(3,4-dihydroxybenzoyloxy)methylceph-3-em-4-carboxylate], the MIC against Enterobacter cloacae P99 came out at 4 µg/mL; in test [1] (Pseudomonas aeruginosa, 10662), 0.12 µg/mL.
